From patent US10662203B2, “Pyrido[2,3-b]indole compounds for the treatment and prophylaxis of bacterial infection” (Hoffmann-La Roche Inc., priority 2017, dated 2020)
≈ marks a conversion by molar mass, not a printed value.

Key:
S. aureus (ATCC29213) = test: 50% growth inhibitory concentration (IC50) determination assay; format: cell-based; conditions: Staphylococcus aureus, Iso-Sensitest broth, 0.098 = detection limit
Outline: (§1)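 Compounds were two-fold serially diluted (50 to 0.097 μM final) in Iso-Sensitest broth, with ~5×10^5 CFU/mL bacteria. Plates were incubated at 35±2° C and growth followed by OD600 every 20 min over 16 h to derive IC50.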

[1] = tested on: K. pneumoniae (ATCC10031); test: as above; format: cell-based; conditions: Klebsiella pneumoniae, Iso-Sensitest broth, 0.098 = detection limit
Outline: as §1

A. baumannii (ATCC17978) = test: as above; format: cell-based; conditions: Acinetobacter baumannii, ATCC17978, A. baumannii ATCC17978; Iso-Sensitest broth; 0.098 = detection limit
Outline: as §1

[2] = Lyophilisation solubility assay (LYSA); format: physicochemical; conditions: phosphate buffer, pH 6.5, aqueous buffer, thermodynamic from solid, 0.05 M phosphate buffer, HPLC-UV
Protocol: Lyophilisation Solubility Assay (LYSA):
The solubility of compounds of present invention was assessed by LYSA assay. Samples were prepared in duplicate from 10 mM DMSO stock solutions (20 μL) diluted in 30 μL pure DMSO. After evaporation of DMSO with a centrifugal vacuum evaporator, the residue was dissolved in 0.05 M phosphate buffer (150 μL, pH 6.5), which was stirred for one hour and shook for two hours. After one night, the solution was filtered using a microtiter filter plate. Then the filtrate and its 1/10 dilution were analyzed by HPLC-UV.

Compound | IC50 (S. aureus (ATCC29213)) | IC50 [1] | IC50 (A. baumannii (ATCC17978)) | solubility thermodynamic [2]
CNc1cc(F)c(F)c2c1[nH]c1ncc(-c3cnc4c(c3)c(=O)c(C(=O)O)cn4C)c(N3CC[C@H]4CN(C)C4C3)c12 (stereo partly drawn) [Example 1.213] | < 0.098 µM | < 0.098 µM | 0.102 µM | 0.026 mg/mL (≈ 46.5 µM)
CNc1cc(F)c(F)c2c1[nH]c1ncc(-c3cnc4c(c3)c(=O)c(C(=O)O)cn4C)c(N3CCCC(N(C)C)C3)c12 (stereo not drawn) [Example 1.215] | 0.114 µM | 0.103 µM | 0.252 µM | 0.048 mg/mL (≈ 85.5 µM)
CNc1cc(F)c(F)c2c1[nH]c1ncc(-c3cnc4c(c3)c(=O)c(C(=O)O)cn4C)c(N3CC4[C@H](CC[C@H]4N(C)C)C3)c12 (stereo partly drawn) [Example 1.221] | < 0.098 µM | < 0.098 µM | 0.081 µM | 0.049 mg/mL (≈ 83.4 µM)
CNc1cc(F)c(F)c2c1[nH]c1ncc(-c3cnc4c(c3)c(=O)c(C(=O)O)cn4C)c(N3C[C@@H](O)[C@@H](N(C)C)C3)c12 [Example 1.223] | < 0.098 µM | < 0.098 µM | 0.298 µM | 0.472 mg/mL (≈ 838 µM)
CNc1cc(F)c(F)c2c1[nH]c1ncc(-c3cnc4c(c3)c(=O)c(C(=O)O)cn4NC)c(N3C[C@@H](O)[C@@H](N(C)C)C3)c12 [Example 1.224] | 0.183 µM | < 0.098 µM | 0.621 µM | 0.57 mg/mL (≈ 985 µM)
CNc1cc(F)c(F)c2c1[nH]c1ncc(-c3cnc4c(c3)c(=O)c(C(=O)O)cn4C)c(N3CC4CCCN(C)C4C3)c12 (stereo not drawn) [Example 1.232] | < 0.098 µM | < 0.098 µM | 0.049 µM | 0.023 mg/mL (≈ 40.1 µM)
CNc1cc(F)c(F)c2c1[nH]c1ncc(-c3cnc4c(c3)c(=O)c(C(=O)O)cn4C)c(N3CCC4(CCN4C)C3)c12 (stereo not drawn) [Example 1.237] | < 0.098 µM | < 0.098 µM | 0.194 µM | 0.145 mg/mL (≈ 259 µM)
CNc1cc(F)c(F)c2c1[nH]c1ncc(-c3cnc4c(c3)c(=O)c(C(=O)O)cn4NC)c(N3CC4[C@@H](C3)OCCN4C)c12 (stereo partly drawn) [Example 1.242] | < 0.098 µM | < 0.098 µM | 0.189 µM | 0.024 mg/mL (≈ 40.6 µM)
CNc1cc(F)c(F)c2c1[nH]c1ncc(-c3cnc4c(c3)c(=O)c(C(=O)O)cn4C)c(N3CCC4CN(C)CCC43)c12 (stereo not drawn) [Example 1.243] | 0.712 µM | 0.403 µM | 0.961 µM | 0.151 mg/mL (≈ 263 µM)
CNc1cc(F)c(F)c2c1[nH]c1ncc(-c3cnc4c(c3)c(=O)c(C(=O)O)cn4C)c(N3CC[C@@H]4C3CCN4C)c12 (stereo partly drawn) [Example 1.245] | < 0.098 µM | < 0.098 µM | 0.293 µM | 0.542 mg/mL (≈ 969 µM)
CNc1cc(F)c(F)c2c1[nH]c1ncc(-c3cnc4c(c3)c(=O)c(C(=O)O)cn4C)c(N3CCC4C3CCCN4C)c12 (stereo not drawn) [Example 1.246] | 0.193 µM | < 0.098 µM | 0.317 µM | > 0.612 mg/mL
CNc1cc(F)c(F)c2c1[nH]c1ncc(-c3cnc4c(c3)c(=O)c(C(=O)O)cn4NC)c(N3CCC4C3CCCN4C)c12 (stereo not drawn) [Example 1.247] | 0.217 µM | < 0.098 µM | 0.344 µM | 0.516 mg/mL (≈ 877 µM)
CNc1cc(F)c(F)c2c1[nH]c1ncc(-c3cnc4c(c3)c(=O)c(C(=O)O)cn4C)c(N3CC[C@@H]4C3CN4C)c12 (stereo partly drawn) [Example 1.248] | 0.199 µM | < 0.098 µM | 0.729 µM | 0.222 mg/mL (≈ 407 µM)
CNc1cc(F)c(F)c2c1[nH]c1ncc(-c3cnc4c(c3)c(=O)c(C(=O)O)cn4NC)c(N3CC[C@@H]4C3CCN4C)c12 (stereo partly drawn) [Example 1.249] | < 0.098 µM | < 0.098 µM | 0.272 µM | 0.487 mg/mL (≈ 848 µM)
CNc1cc(F)c(F)c2c1[nH]c1ncc(-c3cnc4c(c3)c(=O)c(C(=O)O)cn4C)c(N3CC4[C@@H](C3)CN4C)c12 (stereo partly drawn) [Example 1.252] | < 0.098 µM | < 0.098 µM | 0.361 µM | 0.041 mg/mL (≈ 75.2 µM)
CNc1cc(F)cc2c1[nH]c1ncc(-c3cnc4c(c3)c(=O)c(C(=O)O)cn4C)c(N3CC[C@H](N(C)C)C3)c12 [Example 1.253] | < 0.098 µM | < 0.098 µM | 0.092 µM | 0.209 mg/mL (≈ 395 µM)
CNc1cc(F)c(F)c2c1[nH]c1ncc(-c3cnc4c(c3)c(=O)c(C(=O)O)cn4C)c(N3CC[C@@H](CN(C)C)C3)c12 [Example 1.255] | < 0.098 µM | < 0.098 µM | 0.13 µM | 0.099 mg/mL (≈ 176 µM)
CNc1cc(F)c(F)c2c1[nH]c1ncc(-c3cnc4c(c3)c(=O)c(C(=O)O)cn4C)c(N3CC[C@H](CN(C)C)C3)c12 [Example 1.256] | < 0.098 µM | < 0.098 µM | 0.219 µM | 0.202 mg/mL (≈ 360 µM)
CCNn1cc(C(=O)O)c(=O)c2cc(-c3cnc4[nH]c5c(NC)cc(F)c(F)c5c4c3N3CC[C@@H](N(C)C)C3)cnc21 [Example 1.258] | < 0.098 µM | < 0.098 µM | < 0.098 µM | 0.017 mg/mL (≈ 29.5 µM)
CNc1cc(F)cc2c1[nH]c1ncc(-c3cnc4c(c3)c(=O)c(C(=O)O)cn4C3CCNC3)c(N3CCCC3)c12 (stereo not drawn) [Example 1.259] | < 0.098 µM | < 0.098 µM | 0.533 µM | 0.017 mg/mL (≈ 31.4 µM)
CNc1cc(F)c(F)c2c1[nH]c1ncc(-c3cnc4c(c3)c(=O)c(C(=O)O)cn4C)c(N3CC4[C@H](CCN4CCCO)C3)c12 (stereo partly drawn) [Example 1.260] | < 0.098 µM | < 0.098 µM | 0.558 µM | 0.277 mg/mL (≈ 459 µM)
CNc1cc(Cl)cc2c1[nH]c1ncc(-c3cnc4c(c3)c(=O)c(C(=O)O)cn4NC)c(N3CC[C@H]4CN(C)CC43)c12 (stereo partly drawn) [Example 1.264] | < 0.098 µM | < 0.098 µM | 0.267 µM | 0.159 mg/mL (≈ 277 µM)
CNc1cc(Cl)c(F)c2c1[nH]c1ncc(-c3cnc4c(c3)c(=O)c(C(=O)O)cn4NC)c(N3CC[C@H]4CN(C)CC43)c12 (stereo partly drawn) [Example 1.266] | < 0.098 µM | < 0.098 µM | 0.066 µM | 0.241 mg/mL (≈ 408 µM)
CNc1cc(Cl)c(F)c2c1[nH]c1ncc(-c3cnc4c(c3)c(=O)c(C(=O)O)cn4C)c(N3CC[C@H]4CN(C)CC43)c12 (stereo partly drawn) [Example 1.267] | < 0.098 µM | < 0.098 µM | 0.072 µM | 0.104 mg/mL (≈ 181 µM)
CNc1cc(F)cc2c1[nH]c1ncc(-c3cnc4c(c3)c(=O)c(C(=O)O)cn4C)c(N3CCC4(C)CN(C)CC34)c12 (stereo not drawn) [Example 1.272] | < 0.098 µM | < 0.098 µM | 0.112 µM | > 0.632 mg/mL
CNc1cc(F)cc2c1[nH]c1ncc(-c3cnc4c(c3)c(=O)c(C(=O)O)cn4NC)c(N3CCC4(C)CN(C)CC34)c12 (stereo not drawn) [Example 1.273] | < 0.098 µM | < 0.098 µM | 0.254 µM | 0.468 mg/mL (≈ 820 µM)
CCN1CC2[C@@H](CCN2c2c(-c3cnc4c(c3)c(=O)c(C(=O)O)cn4C)cnc3[nH]c4c(NC)cc(F)c(F)c4c23)C1 (stereo partly drawn) [Example 1.279] | < 0.098 µM | < 0.098 µM | 0.215 µM | 0.151 mg/mL (≈ 263 µM)
CCn1cc(C(=O)O)c(=O)c2cc(-c3cnc4[nH]c5c(NC)cc(F)cc5c4c3N3CC[C@H]4CN(C)CC43)cnc21 (stereo partly drawn) [Example 1.289] | < 0.098 µM | < 0.098 µM | 0.21 µM | 0.113 mg/mL (≈ 203 µM)
CCNn1cc(C(=O)O)c(=O)c2cc(-c3cnc4[nH]c5c(NC)cc(F)cc5c4c3N3CC[C@H]4CN(C)CC43)cnc21 (stereo partly drawn) [Example 1.290] | < 0.098 µM | < 0.098 µM | 0.148 µM | 0.247 mg/mL (≈ 433 µM)
CCNn1cc(C(=O)O)c(=O)c2cc(-c3cnc4[nH]c5c(NC)cc(F)c(F)c5c4c3N3CC[C@H]4CN(C)CC43)cnc21 (stereo partly drawn) [Example 1.291] | < 0.098 µM | < 0.098 µM | 0.157 µM | 0.138 mg/mL (≈ 234 µM)
